Results as given in PubChem BioAssay AID1208 (EPA DSSTox, 2008).
The source made the active and inactive calls.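 The calls were made as follows: active = at least one rat sex group has a carcinogenic potency value and tumor site recorded; inconclusive = only rat studies were judged inadequate by the national testing program; inactive = no potency or tumor site, with negative rat experiments.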

System: rat chronic carcinogenicity bioassay, TD50
Experiment: DSSTox (CPDBAS) Carcinogenic Potency Database Summary Rat Bioassay Results
Conditions: for Potency: active compounds read low; for outcome: TD50_Rat_Note: no positive results
Method in brief: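 The activity score maps log10(1/TD50_Rat_mmol) linearly onto 1–100; actives without a computed TD50, such as mixtures, receive 50. Source data are chronic rat carcinogenicity tests, using the most positive experiment for each sex.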

[1] = TargetSites_Rat_Female: no positive results
[2] = TD50_Rat_Note: TD50 is harmonic mean of more than one positive test
[3] = TD50_Rat_Note: TD50 is harmonic mean of more than one positive test, TargetSites_Rat_Female: liver
[4] = TargetSites_Rat_Female: mammary gland

For C=C(Cl)CSC(=S)N(CC)CC, the Potency (TD50_Rat_Note: TD50 is harmonic mean of more than one positive test, TargetSites_Rat_Female: mammary gland) was 26.1 mg/kg/day.

For C[C@](N)(Cc1ccc(O)c(O)c1)C(=O)O, the outcome [1] was “inactive; no positive results”.

In the case of O=Cc1ccco1, the Potency [1] is reported as 683 mg/kg/day.

Compound O=C(O)C(Cl)Cl has a Potency [2] of 161 mg/kg/day.

With c1ccc2ccccc2c1 the Potency (TD50_Rat_Note: TD50 is harmonic mean of more than one positive test, TargetSites_Rat_Female: nasal cavity) was 22.1 mg/kg/day.

In the case of C=C/C1=C/[C@H](C)[C@](C)(OC(C)=O)C(=O)OCC2=CC[N+]3(C)CC[C@@H](OC1=O)C23[O-] (some centres not stated), the Potency (TargetSites_Rat_BothSexes: liver, vascular system) is reported as 0.5 mg/kg/day.

With CC(O)CNCC(C)O (configuration not stated) the outcome was “inactive; no positive results”.

For CC(=O)Nc1ccc(-c2ccccc2)cc1O, the outcome [1] was “inactive”.

With Oc1ccc(Cl)cc1Cl the outcome [1] was “inactive; no positive results”.

With O.O.O.O.O.O.O=S(=O)([O-])[O-].[Ni+2] the outcome [1] was “inactive; no positive results”.

For O=C1C2(Cl)C3(Cl)C4(Cl)C(Cl)(Cl)C5(Cl)C3(Cl)C1(Cl)C5(Cl)C24Cl (configuration not stated), the Potency (TargetSites_Rat_Female: liver) was 2.96 mg/kg/day.

With CCCOC(=O)c1cc(O)c(O)c(O)c1 the outcome [1] was “inactive; no positive results”.

For CN(N=O)C(=O)c1c(N(C)N=O)ncn1C, the Potency (TargetSites_Rat_BothSexes: stomach) was 0.183 mg/kg/day.

O=C1CN=C(c2ccccc2)c2cc(Cl)ccc2N1CC1CC1 was tested, and the outcome [1] was “inactive; no positive results”.

In the case of C[C@@H]1C[C@H]2[C@@H]3CCC4=CC(=O)C=C[C@]4(C)[C@@]3(F)[C@@H](O)C[C@]2(C)[C@@]1(O)C(=O)CO, the outcome is reported as “inactive; no positive results”.

CCn1c2ccccc2c2cc(N)ccc21 showed a Potency (TD50_Rat_Note: TD50 is harmonic mean of more than one positive test, TD50_Rat_mmol was not calculated for this mixture, but Activiity S, TargetSites_Rat_Female: ear Zymbals gland) of 26.4 mg/kg/day and a Potency (TD50_Rat_Note: TD50 is harmonic mean of more than one positive test, TargetSites_Rat_Female: ear Zymbals gland, liver, uterus) of 57.2 mg/kg/day.

CCOC(=O)C1OC1(C)c1ccccc1 (configuration not stated) was tested, and the outcome [1] was “inactive; no positive results”.

For O=C(c1ccccc1)C(O)c1ccccc1 (configuration not stated), the outcome [1] was “inactive; no positive results”.

For CCCCC/C=C\C/C=C\CCCCCCCC(=O)OC, the outcome was “inactive; no positive results”.

O=C1CCc2ccccc2O1 was tested, and the Potency [1] was 2970 mg/kg/day.

[Cl-].[Cl-].[Sn+2] was tested, and the outcome [1] was “inactive; no positive results”.

NS(=O)(=O)c1cc(C(=O)O)c(NCc2ccco2)cc1Cl was tested, and the outcome [1] was “inactive; no positive results”.

Compound C=C(C)CCl has a Potency (TD50_Rat_Note: TD50 is harmonic mean of more than one positive test, TargetSites_Rat_Female: stomach) of 113 mg/kg/day.

C[C@]12C=CC(=O)C=C1CC[C@@H]1[C@@H]2[C@@H](O)C[C@@]2(C)[C@H]1CC[C@]2(O)C(=O)CO showed a Potency [1] of 1.53 mg/kg/day.

In the case of CO[C@H]1/C=C/O[C@@]2(C)Oc3c(C)c(O)c4c(O)c(c(/C=N/N5CCN(C)CC5)c(O)c4c3C2=O)NC(=O)/C(C)=C\C=C\[C@H](C)[C@H](O)[C@@H](C)[C@@H](O)[C@@H](C)[C@H](OC(C)=O)[C@@H]1C, the outcome [1] is reported as “inactive; no positive results”.

Compound C=CBr has a Potency (TD50_Rat_Note: TD50 is harmonic mean of more than one positive test, TargetSites_Rat_Female: ear Zymbals gland, liver, vascular system) of 18.5 mg/kg/day.

C/C=N/O was tested, and the outcome was “inactive; no positive results”.

C[C@H]1CCCCN1N=O was tested, and the Potency (TargetSites_Rat_BothSexes: nervous system) was 13.2 mg/kg/day.

In the case of ClC#CCl, the Potency (TD50_Rat_Note: TD50 is harmonic mean of more than one positive test, TargetSites_Rat_Female: hematopoietic system, kidney, liver) is reported as 3.58 mg/kg/day.

COc1cccc(O)c1O gave a Potency of 48.7 mg/kg/day.

Work on O=NN1CCCCCCCCCCCC1 yielded a Potency [3] of 10.9 mg/kg/day.

For CCN(CC)C(=S)SSC(=S)N(CC)CC, the outcome [1] was “inactive; no positive results”.

In the case of CCC[CH2][Sn]([CH2]CCC)([O]C(C)=O)[O]C(C)=O, the outcome (TargetSites_Rat_Female: NTP bioassay inadequate) is reported as “inactive; no positive results”.

With Nc1cccc(N)c1 the outcome was “inactive; no positive results”.

CCN(C)N=O was tested, and the Potency [1] was 0.0503 mg/kg/day.

COP(=S)(OC)Oc1ccc(SC)c(C)c1 was tested, and the outcome [1] was “inactive; no positive results”.

In the case of ClC(Cl)=C(Cl)c1c(Cl)c(Cl)c(Cl)c(Cl)c1Cl, the outcome [1] is reported as “inactive; no positive results”.

For NC1CCCCC1, the outcome [1] was “inactive; no positive results”.

C=CCOc1ccc(CC(=O)O)cc1Cl was tested, and the outcome [1] was “inactive; no positive results”.

COc1cc(OC)c2c3c(c(=O)oc2c1)CCC3=O was tested, and the outcome was “inactive; no positive results”.

CN(CCCC(=O)c1cccnc1)N=O gave a Potency [2] of 0.0999 mg/kg/day.

CCN(CC)C(C)=O was tested, and the Potency (TD50_Rat_Note: no positive results are statistically significant) was 8.85 mg/kg/day.

O=[As](O)(O)O was tested, and the outcome (TargetSites_Rat_BothSexes: no positive results) was “inactive”.

Cc1cccc(C)c1NC1=NCCCS1 was tested, and the outcome was “inactive; no positive results”.

Work on CCN=[N+](C)[O-] yielded a Potency of 11.5 mg/kg/day.

Cc1ccc(OP(=O)(Oc2ccc(C)cc2)Oc2ccc(C)cc2)cc1 was tested, and the outcome [1] was “inactive; no positive results”.

With [N-]=[N+]=CC(=O)OC[C@H](N)C(=O)O the Potency (TD50_Rat_Note: positive test results only by intraperitoneal or intravenous injection, TargetSites_Rat_BothSexes: pancreas) was 0.793 mg/kg/day.

In the case of COc1cc2c(c3oc4cccc(O)c4c(=O)c13)C1C=COC1O2 (configuration not stated), the Potency (TD50_Rat_Note: TD50 is harmonic mean of more than one positive test, greater than ten-fold variation among TD50 values for positive res, TargetSites_Rat_BothSexes: liver) is reported as 0.152 mg/kg/day.

Compound O=NN(CCCl)C(=O)N[C@@H]1[C@@H](O)[C@H](O)[C@@H](CO)O[C@@H]1O has a Potency (TD50_Rat_Note: positive test results only by intraperitoneal or intravenous injection, TD50 is harmonic mean of more than one positive, TargetSites_Rat_Female: peritoneal cavity) of 0.0375 mg/kg/day.

In the case of O=S(=O)(O)c1ccc2c(N=Nc3ccc(S(=O)(=O)O)c4ccccc34)c(O)c(S(=O)(=O)O)cc2c1, the Potency (TD50_Rat_Note: TD50 is harmonic mean of more than one positive test, TargetSites_Rat_BothSexes: hematopoietic system) is reported as 1470 mg/kg/day.

For CN1C(=O)C[C@@H](C(=O)N[C@@H](Cc2cnc[nH]2)C(=O)N2CCC[C@H]2C(N)=O)NC1=O, the outcome [1] was “inactive; no positive results”.

In the case of NNc1nc(-c2ccccc2)cs1, the outcome [1] is reported as “inactive”.

In the case of CS(=O)(=O)OCCCNCCCOS(C)(=O)=O, the outcome [1] is reported as “inactive; no positive results”.

Compound CC(=O)Nc1ccc(-c2ccc(F)cc2)cc1 has a Potency of 1.01 mg/kg/day.

With CCSC[C@H](N)C(=O)O the outcome was “inactive; no positive results”.

Compound CC1CN(/N=C/c2ccc([N+](=O)[O-])o2)C(=O)N1 (configuration not stated) has a Potency [4] of 5.34 mg/kg/day.

For O=NN1CSCSC1, the outcome [1] was “inactive”.

CN(C)/N=N/c1nc[nH]c1C(N)=O was tested, and the Potency (TargetSites_Rat_Female: hematopoietic system, mammary gland, uterus) was 0.71 mg/kg/day.

Oc1ccc2ccccc2c1N=Nc1ccccc1 showed a Potency [3] of 29.4 mg/kg/day.

In the case of CN(N=O)C(N)=O, the Potency is reported as 0.0927 mg/kg/day.

With CC1=C(C)C(=O)C(C(CCCCCC(=O)O)c2ccccc2)=C(C)C1=O (configuration not stated) the outcome [1] was “inactive; no positive results”.

With Nc1ccc(-c2ccccc2)cc1 the Potency [4] was 0.98 mg/kg/day.

CCCCCl was tested, and the outcome [1] was “inactive; no positive results”.

CCOC(=O)C(O)(c1ccc(Cl)cc1)c1ccc(Cl)cc1 was tested, and the outcome [1] was “inactive; no positive results”.

In the case of CC(O)CCl (configuration not stated), the outcome [1] is reported as “inactive; no positive results”.

In the case of CCCCCC(N)=O, the outcome [1] is reported as “inactive; no positive results”.

With CCN(C=O)CC the outcome was “inactive; no positive results”.

With C/C(=C(\CCOC(=O)c1ccccc1)SC(=O)c1ccccc1)N(C=O)Cc1cnc(C)nc1N the outcome [1] was “inactive; no positive results”.

With CN1CCCC1=O the outcome [1] was “inactive; no positive results”.

N[C@@H](CCC(=O)O)C(=O)O was tested, and the outcome [1] was “inactive; no positive results”.

With Nc1ncn([C@@H]2O[C@H](CO)[C@@H](O)[C@H]2O)c(=O)n1 the Potency (TD50_Rat_Note: positive test results only by intraperitoneal or intravenous injection, TargetSites_Rat_Female: NTP bioassay inadequate) was 0.17 mg/kg/day.

With O=S(=O)(O)c1ccc(N=Nc2c(O)ccc3cc(S(=O)(=O)O)ccc23)cc1 the outcome [1] was “inactive; no positive results”.

In the case of N#Cc1c(Cl)c(Cl)c(Cl)c(C#N)c1Cl, the Potency (TD50_Rat_Note: TD50 is harmonic mean of more than one positive test, TargetSites_Rat_Female: kidney) is reported as 2270 mg/kg/day.

CC(=O)OC/C=C(\C)CCC=C(C)C was tested, and the outcome [1] was “inactive; no positive results”.

C=CC was tested, and the outcome [1] was “inactive; no positive results”.

For NCCNc1cccc2ccccc12, the outcome [1] was “inactive; no positive results”.

With COc1cc2c(c3oc(=O)c4c(c13)CC[C@H]4O)[C@@H]1C=CO[C@H]1O2 the Potency was 0.00247 mg/kg/day.

Cc1cc(-c2ccc(N)c(C)c2)ccc1N gave a Potency (TD50_Rat_Note: TD50 is harmonic mean of more than one positive test, TargetSites_Rat_Female: clitoral gland, ear Zymbals gland, large intestine, liver, lung, mammary gland, oral cavity, skin, small intestine) of 0.629 mg/kg/day.

CC1(C)O[C@@H]2C[C@H]3[C@@H]4CCC5=CC(=O)C=C[C@]5(C)[C@@]4(F)[C@@H](O)C[C@]3(C)[C@]2(C(=O)CO)O1 gave a Potency of 0.053 mg/kg/day.

For Nc1ccc(/C=C/c2ccc(N)cc2S(=O)(=O)O)c(S(=O)(=O)O)c1, the outcome [1] was “inactive; no positive results”.

Work on O=S(=O)(O)O yielded a Potency (TD50_Rat_Note: TD50 is harmonic mean of more than one positive test, TargetSites_Rat_Female: lung) of 40.8 mg/kg/day.

Compound O=NN1CC(=O)NC1=O has a Potency (TD50_Rat_Note: TD50 is harmonic mean of more than one positive test, TargetSites_Rat_Female: all tumor bearing animals) of 43.8 mg/kg/day.

For O=C1OC(=O)c2ccccc21, the outcome [1] was “inactive; no positive results”.

For CNC(=O)O/N=C/C(C)(C)SC, the outcome [1] was “inactive; no positive results”.

With CN(C)CCOC(c1ccccc1)c1ccccc1 the outcome [1] was “inactive; no positive results”.

Oc1cccc(O)c1 was tested, and the outcome [1] was “inactive; no positive results”.

CCCCCCCCS(=O)C(C)Cc1ccc2c(c1)OCO2 (configuration not stated) was tested, and the outcome [1] was “inactive; no positive results”.

S=C([S-])NCCNC(=S)[S-].[Zn+2] was tested, and the outcome [1] was “inactive; no positive results” and the Potency (TargetSites_Rat_BothSexes: all tumor bearing animals) was 255 mg/kg/day.

With Oc1ccc(O)cc1 the Potency (TD50_Rat_Note: TD50 is harmonic mean of more than one positive test, TargetSites_Rat_Female: hematopoietic system) was 82.8 mg/kg/day.

O=P(O)(OCC(Br)CBr)OCC(Br)CBr (configuration not stated) showed a Potency (TD50_Rat_Note: TD50 is harmonic mean of more than one positive test, TargetSites_Rat_Female: esophagus, liver, small intestine, stomach) of 32 mg/kg/day.
